pIC50: −log10 of the molar value. Structures can show the parent of a compound that is named as a salt. Where two headings read alike, the source gives them in different places.
Assays:
[1] = target: T1, recombinant human LTA4 hydrolase (rhLTA4H) (Homo sapiens, UniProt P09960); assay: Recombinant human LTA4 hydrolase assay for LTA4 hydrolase inhibitor activity; format: biochemical
T1 construct: made in house; host or cells: Spodoptera frugiperda (Sf-9) cells, baculovirus (pFastBac1)
T1 sequence (P09960 1-611): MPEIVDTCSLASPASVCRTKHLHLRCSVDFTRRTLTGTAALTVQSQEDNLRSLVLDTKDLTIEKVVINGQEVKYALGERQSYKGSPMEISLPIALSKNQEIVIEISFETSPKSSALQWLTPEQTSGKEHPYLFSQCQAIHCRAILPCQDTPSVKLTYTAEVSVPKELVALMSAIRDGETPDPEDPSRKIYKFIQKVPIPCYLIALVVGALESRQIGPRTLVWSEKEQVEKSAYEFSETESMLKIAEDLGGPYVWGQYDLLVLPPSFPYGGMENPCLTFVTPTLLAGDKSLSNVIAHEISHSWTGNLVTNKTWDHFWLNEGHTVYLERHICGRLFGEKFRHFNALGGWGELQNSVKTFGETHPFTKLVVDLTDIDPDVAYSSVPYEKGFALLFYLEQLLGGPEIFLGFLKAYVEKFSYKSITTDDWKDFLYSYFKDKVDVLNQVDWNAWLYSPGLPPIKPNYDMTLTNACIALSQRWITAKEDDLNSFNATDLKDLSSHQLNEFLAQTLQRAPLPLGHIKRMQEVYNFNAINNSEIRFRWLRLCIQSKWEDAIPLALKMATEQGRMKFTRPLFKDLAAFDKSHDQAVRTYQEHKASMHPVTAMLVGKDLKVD
How it was run: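 Sf-9-expressed rhLTA4H (36 ng) preincubated 10 min at rt with compound in 0.1 M potassium phosphate pH 7.4, 5 mg/mL fatty-acid-free BSA; 9 ng LTA4 free acid added, 10 min at rt in 225 μL. LTB4 measured by enzyme immunoassay; IC50 from 4-parameter fit, mean of one to three determinations.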

[2] = system: ex vivo stimulated LTB4 production; assay: Murine arachidonic acid-induced inflammation model: ex vivo stimulated LTB4 production in blood; conditions: Mus musculus; 30 mg/kg oral gavage, female Balb/c mice; blood taken 3 h after arachidonic acid, stimulated ex vivo with A23187; read-out: % Inh. LTB4
Protocol: (§1) Murine Arachidonic Acid-Induced Inflammation Model
(§2) LTA4H inhibitor compounds of the present invention were dissolved in 20% cyclodextran/H2O at a concentration of 3 mg/mL. The solutions were administered by oral gavage to female Balb/c mice weighing approximately 20 grams each (0.2 mL per mouse, 30 mg of LTA4H inhibitor compound per kg). Sixty minutes after being administered an LTA4 inhibitor, each mouse received topical application of 20 μL of arachidonic acid (100 mg/mL in acetone) to the left ear and 20 μL of acetone only to the right ear. After 3 h, the mice were sacrificed, blood was withdrawn in heparinized syringes, and 8 mm ear biopsies were taken. Ear biopsies were weighed to determine edema and then frozen at −80° C. until needed for determination of neutrophil influx.
One hundred-microliter aliquots of heparinized blood were added to wells of a microtiter plate, along with equal volumes of RPMI-1640 medium, and calcium ionophore A23187 was added to each sample well (final concentration=[…]). The microtiter plate contents were incubated for 10 min at 37° C. in a humidified incubator. The reaction was terminated by centrifugation (833×g, 10 min at 4° C.). Supernatants were analyzed for LTB4 by a commercially available enzyme-linked immunoassay (Cayman Chemical Co.) in accordance with the manufacturer's instructions. The percent inhibition of ex vivo stimulated LTB4 production (% Inh. LTB4) was determined by comparison to animals treated identically except that the solution admininstered by oral gavage was devoid of inhibitor compound.

[3] = system: neutrophil influx (myeloperoxidase, MPO); assay: Murine arachidonic acid-induced inflammation model: neutrophil influx in ear (myeloperoxidase activity); format: in vivo, female Balb/c mice; conditions: Mus musculus, read-out: % Inh. MPO
Protocol: as §1, §2
Neutrophil influx was quantified by measuring the activity of myeloperoxidase (MPO), a neutrophil-specific enzyme. The ear biopsies were homogenized in 0.5 mL extraction buffer (0.3 M sucrose, 0.22% (w/v) hexadecyl trimethyl ammonium bromide (CTAB), and 2.5 mM citrate prepared from 0.5 M citrate stock solution (pH 5.0)). Debris was removed by centrifugation at 14000×g for 10 min. Aliquots of 10 μL of the resulting supernatant were added to wells of a microtiter plate, along with 90-μL aliquots of dilution buffer (10 mM citrate, 0.22% CTAB), followed by addition of 20 μL TMB liquid substrate system (Sigma Chemical Co.) to each sample well. The microtiter plate contents were held at rt for 1 h. The reaction was stopped by addition of 100 μL 1 M H2SO4 to each sample well, and the myeloperoxidase activity in each sample was determined from the absorbance at 405 nm. The background value from the right ear, treated only with acetone, was subtracted from that for the left ear, treated with arachidonic acid in acetone, for each animal. The percent inhibition of neutrophil influx (% lnh. MPO) by compounds of the invention was determined by comparison to animals treated identically, except that the solution administered by oral gavage was devoid of inhibitor compound.

[4] = system: LTB4 production by calcium ionophore-stimulated murine blood; assay: LTB4 production by calcium ionophore-stimulated murine blood for LTA4H inhibitor activity; format: cell-based, CD-1 mice; conditions: diluted CD-1 mouse whole blood, calcium ionophore A23187, LTB4 by enzyme-linked immunoassay
Protocol: LTB4 Production by Calcium Ionophore-Stimulated Murine Blood for LTA4H Inhibitor Activity
CD-1 mice were sacrificed, and blood was collected in heparin-containing syringes by cardiac puncture. The blood was diluted 1:15 with RPMI-1640 medium, and 200-μL aliquots of the diluted blood were added to wells of a 96-well microtiter plate. LTA4H inhibitor test compounds were prepared at different concentrations in RPMI-1640 medium containing […], and 20 μL of each test solution was added to a well containing diluted whole blood (final DMSO concentration of 0.1%). After the microtiter plate contents were incubated for 15 min at 37° C. in a humidified incubator, calcium ionophore A23187 (Sigma Chemical Co., St. Louis, Mo.) was added to each sample well (final concentration=20 ng/mL). The incubation was continued under the same conditions for an additional 10 min to allow LTB4 formation. The reaction was terminated by centrifugation (833×g, 10 min at 4° C.), and supernatants were analyzed for LTB4 by a commercially available enzyme-linked immunoassay (Cayman Chemical Co.) according to the manufacturer's instructions. Positive controls, under essentially identical conditions but without addition of an inhibitor compound, and negative unstimulated controls, containing all assay components except calcium ionophore, were routinely run in each experiment. IC50 values were determined by fitting the activity data at different compound concentrations to a 4-parameter equation using the Grafit program (Erithacus software).

[5] = system: ionophore-induced LTB4 production; conditions: oral administration; cited from earlier work
[6] = system: ionophore-induced LTB4 production; conditions: oral administration; cited from earlier work; remark: listed apart in the source
colitis symptoms = conditions: eight weeks of treatment, cotton top tamarins; cited from earlier work
[7] = recombinant human LTA4H, LTB4 quantified by enzyme-linked immunoassay, average of one to three determinations, read-out: IC50
[8] = 30 mg/kg oral gavage 60 min before topical arachidonic acid to ear, female Balb/c mice, ear biopsies after 3 h

| pIC50 [1, 7] | pIC50 [4] | Compound | inhibition at 30 mg/kg [2] | also measured |
| --- | --- | --- | --- | --- |
| 8.15 | – | O=C(O)CCN(CCc1ccc(OCCc2ccccc2)cc1)C1CCCCC1 [Example 89, 3-{Cyclohexyl-[2-(4-phenethyloxy-phenyl)-ethyl]-amino}-propionic acid] | 36% | inhibition in vivo at 30 mg/kg [3, 8]: 41% |
| 8.30 | 7.48 | O=C1CCCN1C1CCN(Cc2ccc(OCCCc3ccccc3)cc2)CC1 [Example 107, 1-{1-[4-(3-Phenyl-propoxy)-benzyl]-piperidin-4-yl}-pyrrolidin-2-one] | – | – |
| 7.64 | 6.76 | c1ccc(CCOc2ccc(OCCN3CCCCC3)cc2)cc1 [Example 67, 1-[2-(4-Phenethyloxy-phenoxy)-ethyl]-piperidine] | – | – |
| 7.57 | 6.77 | c1ccc(CCOc2ccc(CCN3CCC(c4nnn[nH]4)CC3)cc2)cc1 [Example 30, 1-[2-(4-Phenethyloxy-phenyl)-ethyl]-4-(1H-tetrazol-5-yl)-piperidine] | – | – |
| – | – | CN(CCCOc1ccc(Cc2ccccc2)cc1)CCC(=O)O.Cl [SC57461] | – | inhibition of ionophore-induced LTB4 production in mouse blood ex vivo [5]: caused inhibition; inhibition of ionophore-induced LTB4 production in rat peritoneum in vivo [6]: caused inhibition; colitis symptoms (colitis symptoms): significantly improved colitis symptoms |
| 7.60 | 6.90 | CC(=O)NC1CCN(Cc2ccc(OCCCc3ccccc3)cc2)CC1 [Example 120, N-{1-[4-(3-Phenyl-propoxy)-benzyl]-piperidin-4-yl}-acetamide] | – | – |
| 7.72 | 7.03 | CS(=O)(=O)NC1CCN(Cc2ccc(OCCCc3ccccc3)cc2)CC1 [Example 119, N-{1-[4-(3-Phenyl-propoxy)-benzyl]-piperidin-4-yl}-methanesulfonamide] | – | – |
| 7.89 | 7.25 | CC(=O)NC1CCN(Cc2ccc(OCCc3ccccc3)cc2)CC1 [Example 113, N-[1-(4-Phenethyloxy-benzyl)-piperidin-4-yl]-acetamide] | – | – |
| 7.30 | 6.72 | NC(=O)C1CCN(CCc2ccc(OCCc3ccccc3)cc2)CC1 [Example 79, 1-[2-(4-Phenethyloxy-phenyl)-ethyl]-piperidine-4-carboxylic acid amide] | – | – |
| 7.70 | 6.67 | c1ccc2c(c1)CC(Oc1ccc(OCCN3CCCCC3)cc1)C2 [Example 69, 1-{2-[4-(Indan-2-yloxy)-phenoxy]-ethyl}-piperidine] | – | – |

| Compound | pIC50 [1, 7] | pIC50 [4] | inhibition at 30 mg/kg [2] | also measured |
| --- | --- | --- | --- | --- |
| CCCCN(CCCC)CCCc1ccc(OC(=O)Nc2ccccc2)cc1 [Example 12, Phenyl-carbamic acid 4-(3-dibutylamino-propyl)-phenyl ester hydrochloride] | – | 7.06 | – | pIC50 [1]: 8.52 |
| O=C(Cc1ccc(OCCN2CCC(O)(c3ccccc3)CC2)cc1)Nc1ccccc1O [Example 13, N-(2—hydroxy-phenyl)-2-{4-[2-(4-hydroxy-4-phenyl-piperidin-1-yl)-ethoxy]-phenyl}-acetamide] | 8.00 | 7.33 | – | – |
| O=C(O)CCN(CCc1ccc(OCCc2ccccc2)cc1)C1CC1 [Example 35, 3-{Cyclopropyl-[2-(4-phenethyloxy-phenyl)-ethyl]-amino}-propionic acid trifluoroacetic acid salt] | 9.30 | – | 84% | inhibition in vivo at 30 mg/kg [3, 8]: 92% |
| O=C(Nc1ccccc1)Oc1ccc(OCCN2CCCCC2)cc1 [Example 15, Phenyl-carbamic acid 4-(2-piperidin-1-yl-ethoxy)-phenyl ester] | 7.89 | – | 78% | inhibition in vivo at 30 mg/kg ([3]; po, 3 h): 92% |
| O=C(Nc1ccccc1)Oc1ccc(OCCN2CCC(O)(c3ccccc3)CC2)cc1 [Example 47, Phenyl-carbamic acid 4-[2-(4-hydroxy-4-phenyl-piperidin-1-yl)-ethoxy]-phenyl ester] | 9.00 | – | 80% | inhibition in vivo at 30 mg/kg ([3]; po, 3 h): 95% |
| O=C(Nc1cccc(O)c1)Oc1ccc(OCCN2CCC(O)(c3ccccc3)CC2)cc1 [Example 11, (3-hydroxy-phenyl)-carbamic acid 4-[2-(4-hydroxy-4-phenyl-piperidin-1-yl)-ethoxy]-phenyl ester] | 9.52 | 7.92 | – | – |
| O=C(Nc1ccccc1)Oc1ccc(OCCN2CCC(CO)CC2)cc1 [Example 51, Phenyl-carbamic acid 4-[2-(4-hydroxymethyl-piperidin-1-yl)-ethoxy]-phenyl ester] | 8.40 | 7.92 | – | – |
| CCCCN(CCCC)CCOc1ccc(OC(=O)Nc2ccccc2)cc1 [Example 48, Phenyl-carbamic acid 4-(2-dibutylamino-ethoxy)-phenyl ester] | 8.05 | – | 69% | inhibition in vivo at 30 mg/kg ([3]; po, 3 h): 66% |
| O=C(Nc1ccccc1)Oc1ccc(CCN2CCCCC2)cc1 [Example 52, Phenyl-carbamic acid 4-(2-piperidin-1-yl-ethyl)-phenyl ester] | 8.52 | – | 80% | inhibition in vivo at 30 mg/kg ([3]; po, 3 h): 87% |

Reference: patent US20060223792A1, “Phenyl and pyridyl LTA4H modulators” (priority 2005, published 2006)
